Data taken from EP4548907A1 (SkyLab AG, priority 2023, dated 2025).
Values joined by “and” are separate entries in the source; they are usually repeats but may differ in a detail not shown here. Equal entries are not always repeated.

Experiments:
Set-up in all cases: species or system bovine
[1] = Summary of 3 experiments in comparison with negative and positive controls; conditions: Water (Negative control) 0 units; for Comparison: units worser than negative control / Comparison: units better than fluoride / Comparison: units better than negative control: scale: Fluoride (Positive control) 100 units
From the text: Table 10. Summary of 3 experiments in comparison with negative and positive controls

[2] = Experiment 3: surface microhardness recovery of demineralised enamel, aspartic acid combined with different calcium sources; conditions: single treatment 16 hours at 37°C, solutions pH 6 to 6.5 (excluding controls), n=10
Experimental: Enamel blocks were sectioned from bovine teeth, lapped plane-parallel, and highly polished. The baseline surface microhardness of the enamel samples was measured. The samples were then stratified between the treatment groups based on the baseline surface microhardness values.
(§1) The enamel samples were artificially demineralised by immersing them in a demineralisation solution for 60 minutes. Following demineralisation, the surface microhardness of the enamel samples was remeasured.
(§2) The enamel samples in each treatment group were treated with the assigned test products for 16 hours. Following treatment, the surface microhardness of each treated enamel sample was remeasured.
(§3) The percentage of surface microhardness recovery (%SMHR) achieved by the test products was calculated and used to compare the ability of the test products to repair the demineralised enamel samples.
The pH of each solution was adjusted into the pH range of pH 6 to 6.5, using sodium hydroxide or dilute hydrochloric acid (Excluding the positive and negative control). All pH measurements were taken with a calibrated pH electrode (Serial Number: VT1 8048) and an Accumet XI,250 ion meter (Asset Number: UK01200-LAB-15-002).
Approximately 130 enamel blocks (Measuring 4mm x 4mm) were sectioned from bovine incisors and were lapped plano-parallel (both sides) using a Logitech PM5 lapping machine (Asset number: 4F008).
(§4) The enamel surfaces of the samples were machine-polished with 1 micron and 0.3 micron aluminium oxide slurries, using a MetPrep Saphir 550 Polisher (Asset Number: UK01200-1010015-114).
(§5) The surface microhardness of each block was measured at the following time points: • At baseline. • After the demineralisation treatment. • After overnight treatment.
(§6) The surface microhardness of the enamel samples was measured using a Buehler MicroMet 5103 (Asset Number: 4F101) and OmniMet MHT software.
(§7) The Intertek CRS method for measuring the surface microhardness of the samples at each time point has been provided below: • Five Knoop indents • 50 gram load force • 10 second dwell time • X50 objective
(§8) A demineralisation solution was prepared that contained: • ▪ 50 mM Acetic acid • ▪ 2.2 mM Calcium nitrate • ▪ 2.2 mM Potassium phosphate monobasic • ▪ 0.1 ppm Sodium fluoride
The pH of the solution was adjusted to pH 4.5. All pH measurements were taken with a calibrated pH electrode (Serial Number: VT1 8048) and an Accumet XI,250 ion meter (Asset Number: UK01200-LAB-15-002.
The enamel blocks were demineralised by placing the samples into a Sterilin containing 8mL of demineralisation solution per sample. All demineralisation exposures were performed for 60 minutes, in an oven set to 37°C for 60 minutes.
The enamel samples were placed into their assigned test solutions for 16 hours at 37°C, whilst being agitated with a magnetic stirrer. Aquasil Putty was used to attach the 10 enamel blocks in each treatment group to a sample holder with the enamel surfaces of the samples exposed.
Following the removal of the samples from the test product, each enamel block was rinsed with deionised water for 1-2 minutes and sonicated for 10 minutes to remove any loose debris. The enamel samples were then returned to their original containers.
The ability of the test formulations to repair the demineralised enamel samples after a single treatment was assessed by calculating the percentage of surface microhardness recovery values (%SMHR) achieved by each test product.
The formula for calculating the %SMHR values achieved by each treatment is shown below: % SMRH = 100∗[(SMHPost-treatment−SMHPost-demineralisation)/(SMH; Baseline−SMH Post-demineralisation)] [formula]

[3] = Experiment 2: surface microhardness recovery of demineralised enamel, aspartic acid with or without tricalcium phosphate; conditions: single treatment 16 hours at 37°C, solutions pH 6-6.5, n=10
Experimental: Enamel blocks were sectioned from bovine teeth, lapped plano-parallel and highly polished. The baseline surface microhardness of the enamel samples was then measured.
as §1, with “in” for “in a”, “remeasured. The samples were then stratified between the treatment groups based upon the baseline surface microhardness.” for “remeasured.”
as §2, §3
The pH of each solution was adjusted into the pH range shown in Table 2, using sodium hydroxide or dilute hydrochloric acid. All pH measurements were taken with a calibrated pH electrode (Serial Number: 13-620-631) and either an Accumet XI,250 ion meter (Asset Number: UK01200-LAB-15-002), or an Orion 720 ion meter (Asset Number: 4F064).
Approximately 90 enamel blocks (Measuring 4mm x 4mm) were sectioned from bovine incisors and were lapped plano-parallel (both sides) using a Logitech PM5 lapping machine (Asset number: 4F008).
as §4, §5, §6, §7, §8
The pH of the solution was adjusted to pH 4.5. All pH measurements were taken with a calibrated pH electrode (Serial Number: 13-620-631) and either an Accumet XI,250 ion meter (Asset Number: UK01200-LAB-15-002), or an Orion 720 ion meter (Asset Number: 4F064). […]
The ability of the test formulations to repair the demineralised enamel samples after a single treatment was assessed by calculating the percentage of surface microhardness recovery values (%SMHR) achieved by each test product. […]

[4] = Experiment 1: remineralization of demineralised enamel, surface microhardness (SMH) after single overnight treatment with calcium sources; conditions: single overnight immersion 16 hours, 37°C; for Mean (%SMR): percentage surface microhardness recovery
Experimental: This in vitro study was designed to compare the remineralization efficacy of the test products, following a single, overnight treatment application.
Bovine enamel blocks were sectioned, machine polished and flattened. The baseline surface microhardness of the enamel samples was measured with a Buehler MicroMet 5103 surface microhardness machine.
Each bovine enamel block was demineralised for 1 hour by immersing the sample at 37°C, in a demineralization solution described by Huang et. al. (2009)^1. Following demineralization, the surface microhardness of each enamel sample was remeasured.
All demineralized enamel samples were subjected to an overnight immersion in the assigned test product, with immersion solutions mixed and heated to 37°C during treatment. Following the overnight immersion, the surface microhardness of the enamel samples was remeasured. The study logistics were designed so that each enamel sample was demineralized and then immersed in the assigned treatment on the same day.
The ability of a single, overnight application of test products and controls to repair enamel lesions was assessed by comparing the percentage surface microhardness recoveries and the changes in surface microhardness for the treated samples.
One hundred and thirty enamel blocks, measuring 4 x 4 mm, were cut from bovine incisors and lapped planar-parallel using a Logitech PM5 lapping machine. The enamel surfaces of the samples were machine-polished using a MetPrep Saphir 550 to a final finish of 0.04 microns. One corner of each block was removed in order to ensure correct orientation on the SMH machine.
The baseline surface microhardness of the enamel samples was measured using a calibrated Buehler MicroMet 5103 microhardness indenter and Knoop diamond indenter tip.
The enamel samples were orientated with the abraded corner in the top right. Baseline surface microhardness indents were placed in the centre of the enamel samples. Five Knoop indents were placed in a vertical line at each timepoint (under a load of 50 g for 10 seconds). Surface imperfections were avoided, and outlying indents replaced.
A demineralization solution was prepared according to the following specifications: • ▪ 50 mM Acetic acid • ▪ 2.2 mM Calcium nitrate • ▪ 2.2 mM Potassium phosphate monobasic • ▪ 0.1 ppm Sodium fluoride • ▪ Final pH of the solution was adjusted to 4.5 with sodium hydroxide.
Enamel samples were mounted onto acetate squares using double-sided tape. Enamel samples were immersed in 8 ml demineralization solution per sample and placed into an oven for 1 hour (37 °C). […]
The post-demineralization surface microhardness of the enamel samples was measured using a calibrated Buehler MicroMet 5103 microhardness indenter and Knoop diamond indenter tip. […]

For `N[C@@H](CC(=O)O)C(=O)O` [Aspartic acid 0.2 % in distilled water, Aspartic acid], the “Comparison: units worser than negative control” value [1] was “for 70 units worser than negative control”, the “Mean %SMHR Value” [2] was -87.69% and the “Mean %SMHR Value” ([2]; listed as 0.2% Aspartic acid) was -88%.
For `N[C@@H](CC(=O)O)C(=O)O` [Aspartic acid 0,1% in artifical saliva, Aspartic acid], the “Comparison: units better than fluoride” value [1] was “for 2 units better than fluoride”.
With `N[C@@H](CC(=O)O)C(=O)O` [Aspartic acid 0,2% in artificial saliva, Aspartic acid] the “Comparison: units better than fluoride” value ([1]; listed as Aspartic acid 0,2% in artifical saliva) was “for 25 units better than fluoride” and the “Mean %SMHR Value” [2] was 16,21%.
For `N[C@@H](CC(=O)O)C(=O)O` [Aspartic acid 0.4 %, Aspartic acid], the “Comparison: units worser than negative control” value ([1]; listed as Aspartic acid 0,4% in distilled water) was “for 82 units worser than negative control”, the “Mean %SMHR Value” [2] was -91.74% and the “Mean %SMHR Value” ([2]; listed as 0.4% Aspartic acid) was -92%.
In the case of `N[C@@H](CC(=O)O)C(=O)O` [Aspartic acid 0.05 %, Aspartic acid], the “Comparison: units better than negative control” value ([1]; listed as 0,05% Aspartic acid) is reported as “for 17 units better than negative control” and the “Mean %SMHR Value” [2] is reported as -35.13%.
In the case of `N[C@@H](CC(=O)O)C(=O)O` [Aspartic Acid 0.5 %, L-Aspartic Acid], the “Comparison: units better than negative control” value ([1]; listed as Aspartic acid 0,5% in distilled water) is reported as “for 90 units better than negative control” and the “Mean %SMHR” value [3] is reported as -37% and -37.32%.
With `N[C@@H](CC(=O)O)C(=O)O` [Aspartic Acid 0.1 %, L-Aspartic Acid] the “Comparison: units better than negative control” value [1] was “for 65 units better than negative control” and the “Mean %SMHR” value [3] was 3.19%.
In the case of `[F-].[Na+]` [1450 ppm F, Sodium Fluoride, reference compound], the “Comparison: units” value ([1]; position on the scale) is reported as 100 units, the “Mean (%SMR)” value ([4]; n = 10) is reported as 35.5556% and the “Mean (%SMR)” value ([4]; n = 10, listed as 1450 ppm Fluoride control) is reported as 36%. The “Mean Change in SMH” value ([4]; post-treatment SMH minus demineralisation SMH (Knoop), n = 10) was 25.12, the “mean SMH increase” value ([4]; rounded values in the text) was 25 HK units and the “Mean %SMHR Value” [2] was 5.15%. The “Mean %SMHR” value [3] was 14% and the “Mean %SMHR” value ([3]; listed as 1450 ppm Fluoride (Positive control)) was 14.12%.
